Assay results: US20250263395A1, “COMPOUNDS THAT MEDIATE PROTEIN DEGRADATION AND METHODS OF USE THEREOF” (Monte Rosa Therapeutics AG, priority 2022, published 2025)

Assays:
CDK2 = CDK2 (Homo sapiens (Human), UniProt P24941); test: CDK2 NanoBiT assay (HiBiT-tagged CDK2 degradation); assay type: cell-based; details: HEK293, HEK293 clonal line, C-terminal HiBiT tag on CDK2, LgBiT; 24 hours
In short: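 HEK293 line with CRISPR knock-in C-terminal HiBiT-tagged CDK2 and stable LgBiT, preincubated 16 h with live-cell substrate, then compound-treated 24 h at 37° C, 5% CO2 (30 μM stock). Luminescence normalized to plate negative and positive controls; EC50 from 3-parameter logistic fit, Hill slope 1.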

CRBN-DDB1 = CRBN-DDB1 (Homo sapiens (Human), UniProt Q96SW2); test: CRBN HTRF assay (Cy5-Thalidomide probe displacement); assay type: binding; details: CRBN-DDB1 2.5 nM, Cy5-Thalidomide 100 nM, 30 min; Ki from geometric mean IC50 by Cheng-Prusoff
In short: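 HTRF displacement of Cy5-thalidomide probe (100 nM) from His-CRBN-DDB1 (2.5 nM) with anti-His terbium cryptate, in HEPES/NaCl/TCEP/EDTA/Tween20 buffer. 10-point 1:3 compound series, 30 min at ambient temperature; signal normalised to DMSO and lenalidomide controls, IC50 fitted and Ki derived by Cheng-Prusoff.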

CRBN-DDB1, sequence (Q96SW2 whole entry): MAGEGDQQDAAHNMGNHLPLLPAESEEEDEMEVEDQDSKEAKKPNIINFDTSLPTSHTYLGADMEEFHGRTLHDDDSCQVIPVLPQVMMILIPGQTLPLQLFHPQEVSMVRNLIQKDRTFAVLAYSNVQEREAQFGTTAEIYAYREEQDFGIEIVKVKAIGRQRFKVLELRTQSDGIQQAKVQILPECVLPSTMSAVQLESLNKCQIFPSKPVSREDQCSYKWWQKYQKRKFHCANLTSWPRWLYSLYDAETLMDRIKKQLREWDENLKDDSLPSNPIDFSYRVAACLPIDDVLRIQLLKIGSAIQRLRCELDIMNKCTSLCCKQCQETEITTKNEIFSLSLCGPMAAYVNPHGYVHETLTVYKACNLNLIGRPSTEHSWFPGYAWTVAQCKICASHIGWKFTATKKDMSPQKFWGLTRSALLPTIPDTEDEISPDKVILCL
CRBN-DDB1, sequence (Q16531 whole entry partner): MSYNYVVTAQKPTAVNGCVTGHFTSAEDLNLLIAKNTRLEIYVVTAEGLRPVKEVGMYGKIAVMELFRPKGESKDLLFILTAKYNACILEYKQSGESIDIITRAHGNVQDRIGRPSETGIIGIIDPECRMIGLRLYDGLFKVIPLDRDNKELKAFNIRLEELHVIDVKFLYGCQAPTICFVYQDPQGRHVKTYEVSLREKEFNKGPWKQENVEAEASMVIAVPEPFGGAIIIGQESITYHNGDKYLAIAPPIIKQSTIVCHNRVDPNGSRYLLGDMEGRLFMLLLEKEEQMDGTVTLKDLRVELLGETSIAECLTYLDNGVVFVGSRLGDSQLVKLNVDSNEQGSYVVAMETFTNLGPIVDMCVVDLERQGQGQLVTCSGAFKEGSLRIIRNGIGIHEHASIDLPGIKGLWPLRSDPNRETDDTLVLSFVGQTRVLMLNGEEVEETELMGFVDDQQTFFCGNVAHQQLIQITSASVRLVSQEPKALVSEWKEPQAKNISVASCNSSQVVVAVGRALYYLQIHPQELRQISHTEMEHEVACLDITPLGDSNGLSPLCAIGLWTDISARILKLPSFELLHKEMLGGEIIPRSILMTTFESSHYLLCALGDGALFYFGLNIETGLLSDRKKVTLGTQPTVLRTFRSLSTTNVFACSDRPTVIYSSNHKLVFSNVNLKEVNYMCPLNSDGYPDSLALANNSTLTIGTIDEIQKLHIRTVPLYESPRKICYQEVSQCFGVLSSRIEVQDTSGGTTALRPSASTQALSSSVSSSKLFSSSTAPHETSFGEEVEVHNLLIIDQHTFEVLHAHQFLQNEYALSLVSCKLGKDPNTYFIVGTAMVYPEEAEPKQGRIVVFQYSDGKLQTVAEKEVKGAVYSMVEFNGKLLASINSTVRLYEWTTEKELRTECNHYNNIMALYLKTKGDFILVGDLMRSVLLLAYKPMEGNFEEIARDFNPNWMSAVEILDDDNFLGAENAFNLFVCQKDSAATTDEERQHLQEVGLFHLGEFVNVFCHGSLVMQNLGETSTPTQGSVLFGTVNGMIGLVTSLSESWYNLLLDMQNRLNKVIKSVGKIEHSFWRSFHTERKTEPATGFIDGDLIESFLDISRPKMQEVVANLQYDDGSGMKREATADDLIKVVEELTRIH

Row | SMILES | Dmax (CDK2) [%] | Ki (CRBN-DDB1) [µM]
1 | O=C1CCC(c2c(F)cc(N3CC(NC(=O)OCCc4ccccc4)C3)cc2F)C(=O)N1 (stereo not drawn) [Compound 34, phenethyl (1-(4-(2,6-dioxopiperidin-3-yl)-3,5-difluorophenyl)azetidin-3-yl)carbamate] | 50 to 80 | 0.1 to 1
2 | CC(C)(CCOC(=O)NC1CN(c2cc(F)c(C3CCC(=O)NC3=O)c(F)c2)C1)C1CC1 (stereo not drawn) [Compound 65, 3-cyclopropyl-3-methylbutyl (1-(4-(2,6-dioxopiperidin-3-yl)-3,5-difluorophenyl)azetidin-3-yl)carbamate] | > 80 | ≤ 0.1
3 | COc1cccc(N(C)C(=O)C23CC(OC(=O)NC4CN(c5cc(F)c(C6CCC(=O)NC6=O)c(F)c5)C4)(C2)C3)c1 (stereo not drawn) [Compound 130, 3-((3-methoxyphenyl)(methyl)carbamoyl)bicyclo[1.1.1]pentan-1-yl (1-(4-(2,6-dioxopiperidin-3-yl)-3,5-difluorophenyl)azetidin-3-yl)carbamate] | 50 to 80 | ≤ 0.1
4 | CN(C(=O)C12CC(OC(=O)NC3CN(c4cc(F)c(C5CCC(=O)NC5=O)c(F)c4)C3)(C1)C2)C1CC1 (stereo not drawn) [Compound 78, 3-(cyclopropyl(methyl)carbamoyl)bicyclo[1.1.1]pentan-1-yl (1-(4-(2,6-dioxopiperidin-3-yl)-3,5-difluorophenyl)azetidin-3-yl)carbamate] | 50 to 80 | ≤ 0.1
5 | CN(C(=O)N1CC(OC(=O)NC2CN(c3cc(F)c(C4CCC(=O)NC4=O)c(F)c3)C2)C1)c1ccc(C#N)cc1 (stereo not drawn) [Compound 73, 1-((4-cyanophenyl)(methyl)carbamoyl)azetidin-3-yl (1-(4-(2,6-dioxopiperidin-3-yl)-3,5-difluorophenyl)azetidin-3-yl)carbamate] | 50 to 80 | ≤ 0.1
6 | Cc1c(Cl)cccc1N(C)C(=O)C12CC(OC(=O)NC3CN(c4cc(F)c(C5CCC(=O)NC5=O)c(F)c4)C3)(C1)C2 (stereo not drawn) [Compound 115, 3-((3-chloro-2-methylphenyl)(methyl)carbamoyl)bicyclo[1.1.1]pentan-1-yl (1-(4-(2,6-dioxopiperidin-3-yl)-3,5-difluorophenyl)azetidin-3-yl)carbamate] | 10 to 50 | ≤ 0.1
7 | O=C1CCC(c2ccc(N3CC(NC(=O)OCC4CC5(CCC5)C4)C3)cc2F)C(=O)N1 (stereo not drawn) [Compound 59, spiro[3.3]heptan-2-ylmethyl (1-(4-(2,6-dioxopiperidin-3-yl)-3-fluorophenyl)azetidin-3-yl)carbamate] | > 80 | ≤ 0.1
8 | Cc1cccc(-c2nnc(NC3CN(c4cc(F)c(C5CCC(=O)NC5=O)c(F)c4)C3)o2)c1 (stereo not drawn) [Compound 97, 3-(2,6-difluoro-4-(3-((5-(m-tolyl)-1,3,4-oxadiazol-2-yl)amino)azetidin-1-yl)phenyl)piperidine-2,6-dione] | > 80 | 0.1 to 1
9 | O=C1CCC(c2c(F)cc(N3CC(NC(=O)OC4CN(C(=O)c5ccc(Cl)cc5)C4)C3)cc2F)C(=O)N1 (stereo not drawn) [Compound 26, 1-(4-chlorobenzoyl)azetidin-3-yl (1-(4-(2,6-dioxopiperidin-3-yl)-3,5-difluorophenyl)azetidin-3-yl)carbamate] | 50 to 80 | ≤ 0.1
10 | O=C1CCC(c2c(F)cc(N3CC(NC(=O)OC4CN(S(=O)(=O)C5CC5)C4)C3)cc2F)C(=O)N1 (stereo not drawn) [Compound 42, 1-(cyclopropylsulfonyl)azetidin-3-yl (1-(4-(2,6-dioxopiperidin-3-yl)-3,5-difluorophenyl)azetidin-3-yl)carbamate] | 10 to 50 | ≤ 0.1
11 | Cc1ccccc1N(C)C(=O)C12CC(OC(=O)NC3CN(c4cc(F)c(C5CCC(=O)NC5=O)c(F)c4)C3)(C1)C2 (stereo not drawn) [Compound 135, 3-(methyl(o-tolyl)carbamoyl)bicyclo[1.1.1]pentan-1-yl (1-(4-(2,6-dioxopiperidin-3-yl)-3,5-difluorophenyl)azetidin-3-yl)carbamate] | 50 to 80 | 0.1 to 1
12 | CN(C(=O)N1CC[C@@H](OC(=O)NC2CN(c3cc(F)c(C4CCC(=O)NC4=O)c(F)c3)C2)C1)C1CC1 (stereo partly drawn) [Compound 25, (R)-1-(cyclopropyl(methyl)carbamoyl)pyrrolidin-3-yl (1-(4-(2,6-dioxopiperidin-3-yl)-3,5-difluorophenyl)azetidin-3-yl)carbamate] | 10 to 50 | ≤ 0.1
13 | CC1(NC(=O)OCC2CC3(CCC3)C2)CN(c2cc(F)c(C3CCC(=O)NC3=O)c(F)c2)C1 (stereo not drawn) [Compound 56, spiro[3.3]heptan-2-ylmethyl (1-(4-(2,6-dioxopiperidin-3-yl)-3,5-difluorophenyl)-3-methylazetidin-3-yl)carbamate] | > 80 | ≤ 0.1
14 | O=C1CCC(c2c(F)cc(N3CC(NC(=O)OC4CC5(CCCCC5)C4)C3)cc2F)C(=O)N1 (stereo not drawn) [Compound 67, spiro[3.5]nonan-2-yl (1-(4-(2,6-dioxopiperidin-3-yl)-3,5-difluorophenyl)azetidin-3-yl)carbamate] | > 80 | ≤ 0.1
15 | N#Cc1ccc(-c2nnc(NC3CN(c4cc(F)c(C5CCC(=O)NC5=O)c(F)c4)C3)o2)cc1 (stereo not drawn) [Compound 95, 4-(5-((1-(4-(2,6-dioxopiperidin-3-yl)-3,5-difluorophenyl)azetidin-3-yl)amino)-1,3,4-oxadiazol-2-yl)benzonitrile] | > 80 | ≤ 0.1
16 | CC1(CCc2nnc(NC3CN(c4cc(F)c(C5CCC(=O)NC5=O)c(F)c4)C3)o2)CC1 (stereo not drawn) [Compound 122, 3-(2,6-difluoro-4-(3-((5-(2-(1-methylcyclopropyl)ethyl)-1,3,4-oxadiazol-2-yl)amino)azetidin-1-yl)phenyl)piperidine-2,6-dione] | 10 to 50 | ≤ 0.1
17 | Cc1ccccc1N(C)C(=O)N1CC(OC(=O)NC2CN(c3cc(F)c(C4CCC(=O)NC4=O)c(F)c3)C2)C1 (stereo not drawn) [Compound 70, 1-(methyl(o-tolyl)carbamoyl)azetidin-3-yl (1-(4-(2,6-dioxopiperidin-3-yl)-3,5-difluorophenyl)azetidin-3-yl)carbamate] | 50 to 80 | ≤ 0.1
18 | O=C1CCC(c2c(F)cc(N3C[C@H](Nc4nnc(C5CC6(CCC6)C5)o4)CC3=O)cc2F)C(=O)N1 (stereo partly drawn) [Compound 92, 3-(2,6-difluoro-4-((R)-2-oxo-4-((5-(spiro[3.3]heptan-2-yl)-1,3,4-oxadiazol-2-yl)amino)pyrrolidin-1-yl)phenyl)piperidine-2,6-dione] | 50 to 80 | ≤ 0.1
19 | O=C1CCC(c2c(F)cc(N3CC(NC(=O)OC4CN(C(=O)c5ccc(F)cc5)C4)C3)cc2F)C(=O)N1 (stereo not drawn) [Compound 22, 1-(4-fluorobenzoyl)azetidin-3-yl (1-(4-(2,6-dioxopiperidin-3-yl)-3,5-difluorophenyl)azetidin-3-yl)carbamate] | 50 to 80 | 0.1 to 1
20 | Cc1cccc(N(C)C(=O)C23CC(OC(=O)NC4CN(c5cc(F)c(C6CCC(=O)NC6=O)c(F)c5)C4)(C2)C3)c1C (stereo not drawn) [Compound 114, 3-((2,3-dimethylphenyl)(methyl)carbamoyl)bicyclo[1.1.1]pentan-1-yl (1-(4-(2,6-dioxopiperidin-3-yl)-3,5-difluorophenyl)azetidin-3-yl)carbamate] | 10 to 50 | ≤ 0.1
21 | O=C1CCC(c2c(F)cc(N3CC(Nc4nnc(-c5ccccn5)o4)C3)cc2F)C(=O)N1 (stereo not drawn) [Compound 124, 3-(2,6-difluoro-4-(3-((5-(pyridin-2-yl)-1,3,4-oxadiazol-2-yl)amino)azetidin-1-yl)phenyl)piperidine-2,6-dione] | 10 to 50 | ≤ 0.1
22 | CN(C(=O)N1CC(OC(=O)NC2CN(c3cc(F)c(C4CCC(=O)NC4=O)c(F)c3)C2)C1)c1ccccc1 (stereo not drawn) [Compound 17, 1-(methyl(phenyl)carbamoyl)azetidin-3-yl (1-(4-(2,6-dioxopiperidin-3-yl)-3,5-difluorophenyl)azetidin-3-yl)carbamate] | 50 to 80 | ≤ 0.1
23 | CN(C(=O)N1CC(OC(=S)NC2CN(c3cc(F)c(C4CCC(=O)NC4=O)c(F)c3)C2)C1)C1CC1 (stereo not drawn) [Compound 108, O-(1-(cyclopropyl(methyl)carbamoyl)azetidin-3-yl) (1-(4-(2,6-dioxopiperidin-3-yl)-3,5-difluorophenyl)azetidin-3-yl)carbamothioate] | > 80 | ≤ 0.1
24 | C[C@@H]1[C@@H](Nc2nnc(-c3ccc(OC(F)(F)F)cc3)o2)CN1c1cc(F)c(C2CCC(=O)NC2=O)c(F)c1 (stereo partly drawn) [Compound 144, 3-(2,6-difluoro-4-((2R,3S)-2-methyl-3-((5-(4-(trifluoromethoxy)phenyl)-1,3,4-oxadiazol-2-yl)amino)azetidin-1-yl)phenyl)piperidine-2,6-dione] | 50 to 80 | ≤ 0.1
25 | Cn1c(N2CC(OC(=O)NC3CN(c4cc(F)c(C5CCC(=O)NC5=O)c(F)c4)C3)C2)nc2ccccc21 (stereo not drawn) [Compound 75, 1-(1-methyl-1H-benzo[d]imidazol-2-yl)azetidin-3-yl (1-(4-(2,6-dioxopiperidin-3-yl)-3,5-difluorophenyl)azetidin-3-yl)carbamate] | 50 to 80 | ≤ 0.1
26 | O=C1CCC(c2c(F)cc(N3CC(NC(=O)OC4CN(c5nc6ccccc6o5)C4)C3)cc2F)C(=O)N1 (stereo not drawn) [Compound 69, 1-(benzo[d]oxazol-2-yl)azetidin-3-yl (1-(4-(2,6-dioxopiperidin-3-yl)-3,5-difluorophenyl)azetidin-3-yl)carbamate] | 50 to 80 | ≤ 0.1
27 | CN(C)C(=O)C12CC(OC(=O)NC3CN(c4cc(F)c(C5CCC(=O)NC5=O)c(F)c4)C3)(C1)C2 (stereo not drawn) [Compound 76, 3-(dimethylcarbamoyl)bicyclo[1.1.1]pentan-1-yl (1-(4-(2,6-dioxopiperidin-3-yl)-3,5-difluorophenyl)azetidin-3-yl)carbamate] | 10 to 50 | ≤ 0.1
